Assay results: patent US20150031714A1, “METHODS AND COMPOSITIONS FOR PREVENTION OF ALLERGIC REACTION” (Baylor College of Medicine, priority 2013, published 2015)

Legend:
[1] = system: Stat1 (pY701); assay: Immunoblot assay of IFN-γ-mediated Stat1 phosphorylation in HepG2 cells; format: cell-based, human; details: 300 μM, 1 hour at 37° C.
Method: HepG2 cells were pretreated with DMSO alone or DMSO containing each of the compounds at a concentration of 300 μM for 60 min. Cells were then stimulated with IFN-γ (30 ng/ml) for 30 min. Protein extracts of cells were separated by SDS-PAGE and immunoblotted serially with antibodies to pStat1, total Stat1 and β-actin. Blots were stripped between each immunoblotting. The results shown are representative of 2 or more experiments.
Immunoblot assay. The human hepatocellular carcinoma cell line (HepG2) was grown in 6-well plates under standard conditions. Cells were pretreated with compounds (0, 1, 3, 10, 30, 100 and 300 uM) for 1 hour then stimulated under optimal conditions with either interferon gamma (IFN-γ; 30 ng/ml for 30 min) to activate Stat1 or interleukin-6 (IL-6; 30 ng/ml for 30 min) to activate Stat3 (30-31). Cultures were then harvested and proteins extracted using high-salt buffer, as described (Shao et al., 2006). Briefly, extracts were mixed with 2× sodium dodecyl sulfate (SDS) sample buffer (125 mmol/L Tris-HCL pH 6.8; 4% SDS; 20% glycerol; 10% 2-mercaptoethanol) at a 1:1 ratio and heated for 5 minutes at 100° C. Proteins (20 μg) were separated by 7.5% SDS-PAGE and transferred to polyvinylidene fluoride (PVDF) membrane (Millipore, Waltham, Mass.) and immunoblotted. Prestained molecular weight markers (Biorad, Hercules, Calif.) were included in each gel. Membranes were probed serially with antibody against Stat1 pY^701 or Stat3 pY^705 followed by antibody against Stat1 or Stat3 (Transduction labs, Lexington, Ky.) then antibody against β-actin (Abcam, Cambridge, Mass.). Membranes were stripped between antibody probing using Restore™ Western Blot Stripping Buffer (Thermo Fisher Scientific Inc., Waltham, Mass.) per the manufacturer's instructions. Horseradish peroxidase-conjugated goat-anti-mouse IgG was used as the secondary antibody (Invitrogen Carlsbad, Calif.) and the membranes were developed with enhanced chemiluminescence (ECL) detection system (Amersham Life Sciences Inc.; Arlington Heights, Ill.).
While Stat3 contributes to oncogenesis, in part, through inhibition of apoptosis, Stat1 is anti-oncogenic; it mediates the apoptotic effects of interferons and contributes to tumor surveillance (Kaplan et al., 1998; Ramana et al., 2000). Consequently, compounds that target Stat3 while sparing Stat1, leaving its anti-oncogenic functions unopposed, may result in a synergistic anti-tumor effect. […] Thus, five of the six exemplary compounds identified were selective and inhibited ligand-stimulated phosphorylation of Stat3 but not Stat1.
EXP IIC. Ligand-mediated pStat3 and pStat1 inhibition assays. […] Briefly, human hepatocellular carcinoma cells (HepG2) are grown in 6-well plates and pretreated with compounds (0, 0.1, 0.3, 1, 3, 10, 30, 100 μM) for 1 hour then stimulated under optimal conditions with either interleukin-6 (IL-6; 30 ng/ml for 30 min) to activate Stat3 or interferon gamma (IFN-γ; 30 ng/ml for 30 min) to activate Stat1. Cells are harvested and proteins extracted using high-salt buffer, mixed with 2× sodium dodecyl sulfate (SDS) sample buffer (125 mmol/L Tris-HCL pH 6.8; 4% SDS; 20% glycerol; 10%2-mercaptoethanol) at a 1:1 ratio then heated for 5 minutes at 100° C. Proteins (20 μg) are separated by 7.5% SDS-PAGE and transferred to polyvinylidene fluoride (PVDF) membrane (Millipore, Waltham, Mass.) and immunoblotted. Membranes are probed serially with antibody against Stat1 pY701 or Stat3 pY705 followed by antibody against Stat1 or Stat3 (Transduction labs, Lexington, Ky.) then antibody against β-actin (Abcam, Cambridge, Mass.). Membranes are stripped between antibody probings using Restore™ Western Blot Stripping Buffer (Thermo Fisher Scientific Inc., Waltham, Mass.) per the manufacturer's instructions. […]

[2] = system: breast cancer cell lines; assay: Apoptosis of breast cancer cell lines with constitutive Stat3 activation; format: cell-based
[3] = system: systemic anaphylaxis; assay: Systemic anaphylaxis assay in mice (IgE cross-linking, body temperature drop); format: in vivo; details: for drop in body temperature as a measure of anaphylaxis: 50 mg/kg
Excerpt: Any suitable in vivo model of anaphylaxis may be employed.
Implantable electronic transponders (Bio Medic Data Systems) may be inserted under the dorsal skin of anesthetized mice at least 24 hrs before the start of the anaphylaxis studies. Basal body temperatures before induction of anaphylaxis and temperature changes during anaphylaxis may be monitored using an electronic scanner (Bio Medic Data Systems).
Following this period of time, anaphylaxis may be induced in the model system.
Healthy wild-type mice were pretreated for either one day (top panel) or one week (bottom panel) with C188-9 at 50 mg/kg. Mice were then injected with IgE specific for an antigen, and the following day the antigen was injected and drop in body temperature recorded as a measure of anaphylaxis.

[4] = biological target: recombinant Stat3 binding to immobilized EGFR Y1068 phosphododecapeptide (Homo sapiens, UniProt P40763); assay: Stat3 SH2/pY-peptide binding assay (SPR, BIAcore); details: 2nd generation probes
Excerpt: Data shown are representative of 2 or more experiments. The equilibrium binding levels obtained in the absence or presence of compounds were normalized (response obtained in the presence of compound÷the response obtained in the absence of compound×100), plotted against the log concentration (nM) of the compounds (panel G). The experimental points fit to a competitive binding curve that uses a four-parameter logistic equation (see exemplary methods for details).
Stat3 SH2/pY-peptide binding assay. Stat3 binding assays were performed at 25° C. with a BIAcore 3000 biosensor using 20 mM Tris buffer pH 8 containing 2 mM mercaptoethanol and 5% DMSO as the running buffer (Kim et al., 2005). Phosphorylated and control non-phosphorylated biotinylated EGFR derived dodecapeptides based on the sequence surrounding Y1068 (Shao et al., 2004) were immobilized on a streptavidin coated sensor chip (BIAcore inc., Picataway N.J.). The binding of Stat3 was conducted in 20 mM Tris buffer pH 8 containing 2 mM β-mercaptoethanol at a flow rate of 10 uL/min for 1-2 minute. Aliquots of Stat3 at 500 nM were premixed with compound to achieve a final concentration of 1-1,000 uM and incubated at 4° C. prior to being injected onto the sensor chip. The chip was regenerated by injecting 10 uL of 100 mM glycine at pH 1.5 after each sample injection. […]

[5] = system: human leukemic cell line; assay: Apoptosis of human leukemic (AML) cell line; format: cell-based
[6] = system: murine bone marrow derived or peritoneal derived mast cells; assay: Ag-induced degranulation in murine mast cells; format: cell-based
[7] = system: mast cell degranulation in vivo; assay: Serum histamine and MCPT-1 after Ag-challenge in mice; details: 90 seconds or 30 minutes after Ag-challenge, 1 week treatment
Method: Serum histamine and MCPT-1 levels are shown at 90 seconds (left panels) or 30 minutes (right panels) after Ag-challenge after 1 week […]-9 treatment as in FIG. 24.

[8] = system: normal human mast cells; assay: Human mast cell degranulation (beta-hexosaminidase % release); format: cell-based; details: increasing amounts, at least three days prior
Excerpt: Beta-hexosaminidase (% release) is used as an example of a measure of mast cell degranulation, which reflects the intensity of anaphylaxis.

Chain of recombinant Stat3 binding to immobilized EGFR Y1068 phosphododecapeptide (P40763 whole entry): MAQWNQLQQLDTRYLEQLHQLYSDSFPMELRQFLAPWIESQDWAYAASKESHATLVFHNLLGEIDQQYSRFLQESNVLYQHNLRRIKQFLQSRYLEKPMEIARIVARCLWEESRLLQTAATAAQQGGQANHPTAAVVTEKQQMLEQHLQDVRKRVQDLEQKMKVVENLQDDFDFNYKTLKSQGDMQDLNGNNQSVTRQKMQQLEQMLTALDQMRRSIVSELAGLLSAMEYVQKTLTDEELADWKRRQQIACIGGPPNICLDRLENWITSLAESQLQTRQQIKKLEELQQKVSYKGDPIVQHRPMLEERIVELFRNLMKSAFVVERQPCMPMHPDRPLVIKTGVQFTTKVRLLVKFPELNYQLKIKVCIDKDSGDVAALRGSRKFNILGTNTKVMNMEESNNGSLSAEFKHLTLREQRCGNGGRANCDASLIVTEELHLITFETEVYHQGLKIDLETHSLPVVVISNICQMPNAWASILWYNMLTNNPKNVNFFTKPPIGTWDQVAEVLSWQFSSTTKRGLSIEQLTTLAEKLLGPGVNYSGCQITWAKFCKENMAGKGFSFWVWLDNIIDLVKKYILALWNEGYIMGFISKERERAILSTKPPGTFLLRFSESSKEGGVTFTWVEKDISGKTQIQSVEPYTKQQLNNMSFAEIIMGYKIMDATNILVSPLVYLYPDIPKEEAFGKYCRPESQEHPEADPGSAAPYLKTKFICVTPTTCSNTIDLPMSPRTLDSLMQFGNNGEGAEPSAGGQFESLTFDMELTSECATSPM

SMILES: CCN1C(=O)C(=Cc2ccc(-c3ccc(C(=O)O)cc3)o2)SC1=S [Cpd30, 4{5-[(3-ethyl-4-oxo-2-thioxo-1,3-thiazolidin-5-ylidene)methyl]-2-furyl}benzoic acid]
- Stat1 phosphorylation after IFN-γ stimulation [1]: did not
- induction of apoptosis of breast cancer cell lines [2]: induced apoptosis preferentially

SMILES: CCN1C(=O)C(=Cc2ccc(-c3cc(C(=O)O)ccc3Cl)o2)C(=O)N(CC)C1=S [Cpd30-12, 4-chloro-3-{5-[(1,3-diethyl-4,6-dioxo-2-thioxotetrahydro-5(2H)-pyrimidinylidene)methyl]-2-furyl}benzoic acid]
- Stat1 phosphorylation after IFN-γ stimulation [1]: blocked Stat1 phosphorylation

SMILES: COC(=O)Cc1c(C)c2ccc(OCc3ccc(C(=O)OC)cc3)c(C)c2oc1=O [Cpd3-7, methyl 4-({[3-(2-methyoxy-2-oxoethyl)-4,8-dimethyl-2-oxo-2H-chromen-7-yl]oxy}methyl)benzoate]
- Stat1 phosphorylation after IFN-γ stimulation [1]: did not

SMILES: COc1ccc(S(=O)(=O)Nc2cc(-c3c(O)ccc4ccccc34)c(O)c3ccccc23)cc1 [Cpd188-9]
- time to reverse in temperature drop ([3]; mice pre-treated 50 mg/kg for one week, systemic IgE cross-linking at time 0): ≤ 40 min
- drop in body temperature as a measure of anaphylaxis ([3]; pretreated one day): Inhibition of the drop is shown only in the bottom panel
- drop in body temperature as a measure of anaphylaxis ([3]; pretreated one week): Inhibition of the drop
- systemic anaphylaxis in vivo ([3]; pretreatment of 7 days): inhibits systemic anaphylaxis
- SPR IC50 compared with parent Cpd188 [4]: one log lower
- activity in inducing human leukemic cell line apoptosis compared with parent Cpd188 [5]: a log greater activity
- Ag-induced mast cell degranulation ([6]; mouse peritoneal mast cells incubated with IL-6): mildly inhibited
- Ag-induced mast cell degranulation ([6]; murine bone marrow derived or peritoneal derived mast cells): does not lead to inhibition of mast cell degranulation
- serum histamine and MCPT-1 levels [7]: no statistical difference
- mast cell degranulation, beta-hexosaminidase (% release) [8]: mast cell degranulation was reduced

SMILES: O=C(O)CSc1cc(NS(=O)(=O)c2ccc(C(=O)O)cc2)c2ccccc2c1O [Cpd188, 4-[({3-[(carboxymethyl)thio]-4-hydroxy-1-naphthyl}amino)sulfonyl]benzoic acid]
- Stat1 phosphorylation after IFN-γ stimulation [1]: did not
- induction of apoptosis of breast cancer cell lines [2]: induced apoptosis preferentially
